Common to all, as to assay type: physicochemical
A short description of data set [1]: Solubility of solubilized capsule formulations in FeSSIF at 37° C. As to conditions: FeSSIF pH 5.0, 37° C.
A short description of data set [2]: Solubility of solubilized capsule formulations in SGF at 37° C.
The nature of data set [3]: Aqueous solubility of the active compound. As to conditions: water; at about room temperature.
A short description of data set [4]: Solubility of solubilized capsule formulations in FaSSIF at 37° C. Particulars: FaSSIF pH 6.5, 37° C.

For orientation: solubility means the dissolved amount per volume that the medium holds. High values mean much dissolved substance, low ones little dissolved substance.

For the compound `NC(=O)[C@@H](CCC(F)(F)F)N(Cc1ccc(-c2ncon2)cc1F)S(=O)(=O)c1ccc(Cl)cc1` [Active Compound, (2R)-2-[[(4-chlorophenyl)sulfonyl][[2-fluoro-4-(1,2,4-oxadiazol-3-yl)phenyl]methyl]amino]-5,5,5-trifluoropentanamide], the “ACTIVE COMPOUND Concentration” value in data set [1] (5 Min.) is 9.7 µg/mL; in data set [1] (15 Min.), 11.5 µg/mL; in data set [1] (30 Min.), 13.3 µg/mL; in data set [1] (60 Min.) it was 15.3 µg/mL; in data set [2] (5 Min.) it was 0.0 µg/mL; in data set [2] (15 Min.) it was 4.6 µg/mL. Besides, the “ACTIVE COMPOUND Concentration” value in data set [2] (24 Hr.) worked out at 1.0 µg/mL; in data set [2] (30 Min.) it was 1.6 µg/mL; in data set [2] (60 Min.) it was 1.0 µg/mL; in data set [4] (5 Min.), 2.5 µg/mL; in data set [4] (15 Min.), 3.8 µg/mL; in data set [4] (24 Hr.), 7.7 µg/mL. Also, the “ACTIVE COMPOUND Concentration” value is 4.6 µg/mL in data set [4] (30 Min.) and 6.0 µg/mL in data set [4] (60 Min.). The compound further returned a solubility in data set [3] below 1 µg/mL.

The values above are taken from US8252821B2, “Bioavailable capsule compositions of amorphous alpha-(N-sulfonamido)acetamide compound” (Bristol-Myers Squibb Company, priority 2009, dated 2012).
